Measurements: patent US7604806B2, “Use of a lyophilisate of dedifferentiated plant cells for skin depigmentation and/or lightening” (Biotechmarine, priority 2003, dated 2009)

Test system: reconstructed epidermes SKINETHIC® integrating melanocytes (type IV)
Test: Assay of the melanin on reconstructed epidermes integrating melanocytes
Type: cell-based, human
Protocol: The cells are grown for 10 days at the air/liquid interface, the growth medium is being changed daily. The thus formed type IV epidermis (=negroid) were used from the 10th day of culture. […] Marine cells obtained in Examples 1 and 2. The assessment of the synthesis of intracellular melanin (qualitative study) was carried out by spectrometry at 475 nm after that the cells were suspended, then dissolved in NaOH (1N) and dimethyl sulfoxide for 30 minutes.

SMILES: O=c1cc(CO)occ1O [Positive control, kojic acid]
- Melanin, % vs negative control (change of the rate of melanin compared to negative control): −44%
- Melanin, Absorbance (475 nm) (intracellular melanin, type IV epidermes, duplicate): 0.09 ± 0.01
